Data reported in US10723705B2, “Heterocyclic compounds and uses thereof” (Incyte Corporation, priority 2015, dated 2020).

The compounds below were run against Human recombinant Histone Deacetylase 8 (HDAC8) (Homo sapiens (Human), UniProt Q9BY41) (assay: HDAC8 Enzymatic Assay (HDAC-Glo I/II luminescence)). Details: HDAC8; read-out: IC50.
Type: biochemical
Experimental: HDAC-Glo™ I/II Assay Kit was purchased from Promega Corporation (Madison, Wis.), including the following components: HDAC-Glo I/II Buffer (25 mM Tris buffer, pH 8.0, supplemented with 137 mM: NaCl, 2.7 mM KCl, 1% v/v Triton X-100 and 1 mM: MgCl2), luminogenic substrates Boc-GAK(Ac)-aminoluciferin (HDAC-Glo I/II substrate), proprietary developer reagent (containing trypsin). Human recombinant Histone Deacetylase 8 (HDAC8) was purchased from Enzo Life Sciences (Plymouth Meeting, Pa.).
The HDAC8 reaction was performed at room temperature in white 384-well polystyrene, flat-bottom microtiter plate (Greiner Bio-one, Monroe, N.C.) in a final volume of 20 μL. Test compounds were first diluted serially in DMSO and 100 nL were transferred to the plate wells by Echo 550 (Labcyte, Sunnyvale, Calif.) before the addition of other reaction components. The final concentration of DMSO in the assay was 0.5%. The HDAC-Glo I/II assay reagent was prepared by rehydration of lyophilized HDAC-Glo I/II substrate in 10 mL. HDAC-Glo I/II assay buffer followed with the addition of 10 μL of developer reagent. 10 uL of 3 nM HDAC8 in the HDAC-Glo I/II assay buffer were first dispensed into the microliter plate containing the compounds and incubated at room temperature for 30 min. The reactions were initiated with the addition of 10 uL HDAC-Glo I/II assay reagent with Multidrop (Thermo, Waltham, Mass.). The final concentration of HDAC8 and HDAC-Glo I/II substrate in the reaction were 1.5 nM and 50 μM, respectively. The assay plate was mixed for 1 min by orbital shaking (500 rpm) and centrifuged for 1 min at 1500 rpm. After 15 min at room temperature, luminescence signals were measured on TopCount (Perkin Elmer). Wells with no compound served as the positive controls and wells containing no HDAC8 were used as negative controls. IC50 determination was performed by fitting the curve of percentage control activity versus the log of the compound concentration using the GraphPad Prism 6.0 software.

Human recombinant Histone Deacetylase 8 (HDAC8), sequence (Q9BY41 whole entry): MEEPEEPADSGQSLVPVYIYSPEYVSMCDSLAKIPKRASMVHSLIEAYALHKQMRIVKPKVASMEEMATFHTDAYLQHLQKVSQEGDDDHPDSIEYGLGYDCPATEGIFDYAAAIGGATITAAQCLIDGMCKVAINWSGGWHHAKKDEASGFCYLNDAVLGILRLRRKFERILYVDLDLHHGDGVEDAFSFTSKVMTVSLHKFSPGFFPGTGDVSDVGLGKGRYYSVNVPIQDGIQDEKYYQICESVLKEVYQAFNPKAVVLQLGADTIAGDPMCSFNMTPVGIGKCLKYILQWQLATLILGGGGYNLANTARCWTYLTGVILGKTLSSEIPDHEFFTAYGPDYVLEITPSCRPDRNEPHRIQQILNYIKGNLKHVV

| Structure (SMILES) | IC50 [nM] |
| --- | --- |
| O=C(NO)C(Cc1ccccc1)n1ncc2cc(Cl)ccc21 (centres unmarked) [Compound I-0001, 2-(5-Chloro-1H-indazol-1-yl)-N-hydroxy-3-phenylpropanamide] | 141 |
| O=C(NO)C(Cc1ccccc1)n1cc2cc(Cl)ccc2n1 (centres unmarked) [Compound I-0003, 2-(5-Chloro-2H-indazol-2-yl)-N-hydroxy-3-phenylpropanamide] | 338 |
| O=C(NO)C(Cc1ccccc1)n1nc2ccc(Cl)cc2c1C#CC1CC1 (centres unmarked) [Compound I-0005, 2-[5-Chloro-3-(cyclopropylethynyl)-2H-indazol-2-yl]-N-hydroxy-3-phenylpropanamide] | 22 |
| O=C(NO)C(Cc1ccccc1)n1ncc2cc(-c3ccncc3)ccc21 (centres unmarked) [Compound I-0011, N-hydroxy-3-phenyl-2-(5-pyridin-4-yl-1H-indazol-1-yl)propanamide] | 87 |
| CCc1ccc2cnn(C(Cc3ccccc3)C(=O)NO)c2c1 (centres unmarked) [Compound I-0018, 2-(6-Ethyl-1H-indazol-1-yl)-N-hydroxy-3-phenylpropanamide] | 443 |
| O=C(NO)C(Cc1ccccc1)n1nc2ccc(-c3ccccc3)cc2c1C#CC1CC1 (centres unmarked) [Compound I-0025, 2-[3-(Cyclopropylethynyl)-5-phenyl-2H-indazol-2-yl]-hydroxy-3-phenylpropanamide] | 134 |

Same assay, conditions: class symbols, Table 14; read-out: HDAC8 IC50

| Structure (SMILES) | IC50 [nM] |
| --- | --- |
| O=C(NO)C(Cc1ccccc1)n1ncc2cc(Cl)ccc21 (centres unmarked) [Compound I-0001, 2-(5-Chloro-1H-indazol-1-yl)-N-hydroxy-3-phenylpropanamide] | 50 to 200 |
| O=C(NO)C(Cc1ccccc1)n1cc2ccccc2n1 (centres unmarked) [Compound I-0002, N-hydroxy-2-(2H-indazol-2-yl)-3-phenylpropanamide] | 200 to 500 |
| O=C(NO)C(Cc1ccccc1)n1cc2cc(Cl)ccc2n1 (centres unmarked) [Compound I-0003, 2-(5-Chloro-2H-indazol-2-yl)-N-hydroxy-3-phenylpropanamide] | 200 to 500 |
| O=C(NO)C(Cc1ccccc1)n1cc2ccc(Br)cc2n1 (centres unmarked) [Compound I-0004, 2-(6-bromo-2H-indazol-2-yl)-N-hydroxy-3-phenylpropanamide] | 200 to 500 |
| O=C(NO)C(Cc1ccccc1)n1nc2ccc(Cl)cc2c1C#CC1CC1 (centres unmarked) [Compound I-0005, 2-[5-Chloro-3-(cyclopropylethynyl)-2H-indazol-2-yl]-N-hydroxy-3-phenylpropanamide] | ≤ 50 |
| O=C(NO)C(Cc1ccccc1)n1cc2ccc(-c3ccccc3)cc2n1 (centres unmarked) [Compound I-0006, N-hydroxy-3-phenyl-2-(6-phenyl-2H-indazol-2-yl)propanamide] | 200 to 500 |
| O=C(NO)C(Cc1ccccc1)n1cc2ccc(-c3cncnc3)cc2n1 (centres unmarked) [Compound I-0007, N-hydroxy-3-phenyl-2-(6-(pyrimidin-5-yl)-2H-indazol-2-yl)propanamide] | 200 to 500 |
| O=C(NO)C(Cc1ccccc1)n1cc2ccc(-c3cccnc3)cc2n1 (centres unmarked) [Compound I-0008, N-hydroxy-3-phenyl-2-(6-(pyridin-3-yl)-2H-indazol-2-yl)propanamide] | 200 to 500 |
| O=C(NO)C(Cc1ccccc1)n1nc(C#CC2CC2)c2cc(Cl)ccc21 (centres unmarked) [Compound I-0009, 2-(5-chloro-3-(cyclopropylethynyl)-1H-indazol-1-yl)-N-hydroxy-3-phenylpropanamide] | 50 to 200 |
| Cn1nccc1-c1ccc2c(cnn2C(Cc2ccccc2)C(=O)NO)c1 (centres unmarked) [Compound I-0010, N-hydroxy-2-(5-(1-methyl-1H-pyrazol-5-yl)-1H-indazol-1-yl)-3-phenylpropanamide] | 50 to 200 |
| O=C(NO)C(Cc1ccccc1)n1ncc2cc(-c3ccncc3)ccc21 (centres unmarked) [Compound I-0011, N-hydroxy-3-phenyl-2-(5-pyridin-4-yl-1H-indazol-1-yl)propanamide] | 50 to 200 |
| O=C(NO)C(Cc1ccccc1)n1ncc2cc(-c3cncnc3)ccc21 (centres unmarked) [Compound I-0012, N-hydroxy-3-phenyl-2-(5-(pyrimidin-5-yl)-1H-indazol-1-yl)propanamide] | 50 to 200 |
| O=C(NO)C(Cc1ccccc1)n1ncc2cc(-c3ccccc3)ccc21 (centres unmarked) [Compound I-0013, N-hydroxy-3-phenyl-2-(5-phenyl-1H-indazol-1-yl)propanamide] | 200 to 500 |
| O=C(NO)C(Cc1ccccc1)n1ncc2cc(-c3c(F)cccc3F)ccc21 (centres unmarked) [Compound I-0014, 2-(5-(2,6-difluorophenyl)-1H-indazol-1-yl)-N-hydroxy-3-phenylpropanamide] | 200 to 500 |
| N#Cc1ccc(-c2ccc3c(cnn3C(Cc3ccccc3)C(=O)NO)c2)cc1 (centres unmarked) [Compound I-0015, 2-(5-(4-cyanophenyl)-1H-indazol-1-yl)-N-hydroxy-3-phenylpropanamide] | 200 to 500 |
| Cc1ccc2c(cnn2C(Cc2ccccc2)C(=O)NO)c1 (centres unmarked) [Compound I-0016, N-hydroxy-2-(5-methyl-1H-indazol-1-yl)-3-phenylpropanamide] | 50 to 200 |

| Structure (SMILES) | IC50 [nM] |
| --- | --- |
| O=C(NO)C(Cc1ccccc1)n1ncc2cc(Br)ccc21 (centres unmarked) [Compound I-0017, 2-(5-bromo-1H-indazol-1-yl)-N-hydroxy-3-phenylpropanamide] | 50 to 200 |
| CCc1ccc2cnn(C(Cc3ccccc3)C(=O)NO)c2c1 (centres unmarked) [Compound I-0018, 2-(6-Ethyl-1H-indazol-1-yl)-N-hydroxy-3-phenylpropanamide] | 200 to 500 |
| O=C(NO)C(Cc1ccccc1)n1ncc2cc(C3CC3)ccc21 (centres unmarked) [Compound I-0019, 2-(5-cyclopropyl-1H-indazol-1-yl)-N-hydroxy-3-phenylpropanamide] | > 500 |
| CCc1ccc2c(cnn2C(Cc2ccccc2)C(=O)NO)c1 (centres unmarked) [Compound I-0020, 2-(5-ethyl-1H-indazol-1-yl)-N-hydroxy-3-phenylpropanamide] | 200 to 500 |
| O=C(NO)C(Cc1ccccc1)n1ncc2ccc(Br)cc21 (centres unmarked) [Compound I-0021, 2-(6-bromo-1H-indazol-1-yl)-N-hydroxy-3-phenylpropanamide] | > 500 |
| O=C(NO)C(Cc1ccccc1)n1ncc2ccc(-c3ccccc3)cc21 (centres unmarked) [Compound I-0022, N-hydroxy-3-phenyl-2-(6-phenyl-1H-indazol-1-yl)propanamide] | > 500 |
| O=C(NO)C(Cc1ccccc1)n1ncc2ccc(-c3cncnc3)cc21 (centres unmarked) [Compound I-0023, N-hydroxy-3-phenyl-2-(6-(pyrimidin-5-yl)-1H-indazol-1-yl)propanamide] | > 500 |
| O=C(NO)C(Cc1ccccc1)n1cc2cc(Br)ccc2n1 (centres unmarked) [Compound I-0024, 2-(5-bromo-2H-indazol-2-yl)-N-hydroxy-3-phenylpropanamide] | > 500 |
| O=C(NO)C(Cc1ccccc1)n1nc2ccc(-c3ccccc3)cc2c1C#CC1CC1 (centres unmarked) [Compound I-0025, 2-[3-(Cyclopropylethynyl)-5-phenyl-2H-indazol-2-yl]-hydroxy-3-phenylpropanamide] | 50 to 200 |
| NC(=O)c1ccc(-c2ccc3nn(C(Cc4ccccc4)C(=O)NO)c(C#CC4CC4)c3c2)cc1 (centres unmarked) [Compound I-0026, 4-(3-(cyclopropylethynyl)-2-(1-(hydroxyamino)-1-oxo-3-phenylpropan-2-yl)-2H-indazol-5-yl)benzamide] | ≤ 50 |
| O=C(NO)C(Cc1ccccc1)n1nc2ccc(-c3c(F)cccc3F)cc2c1C#CC1CC1 (centres unmarked) [Compound I-0027, 2-(3-(cyclopropylethynyl)-5-(2,6-difluorophenyl)-2H-indazol-2-yl)-N-hydroxy-3-phenylpropanamide] | 200 to 500 |
| Cn1nccc1-c1ccc2nn(C(Cc3ccccc3)C(=O)NO)c(C#CC3CC3)c2c1 (centres unmarked) [Compound I-0028, 2-(3-(cyclopropylethynyl)-5-(1-methyl-1H-pyrazol-5-yl)-2H-indazol-2-yl)-N-hydroxy-3-phenylpropanamide] | ≤ 50 |
| O=C(NO)C(Cc1ccccc1)n1nc2ccc(-c3ccncc3)cc2c1C#CC1CC1 (centres unmarked) [Compound I-0029, 2-(3-(cyclopropylethynyl)-5-(pyridin-4-yl)-2H-indazol-2-yl)-N-hydroxy-3-phenylpropanamide] | 50 to 200 |
| O=C(NO)C(Cc1ccccc1)n1nc2ccc(-c3cncnc3)cc2c1C#CC1CC1 (centres unmarked) [Compound I-0030, 2-(3-(cyclopropylethynyl)-5-(pyrimidin-5-yl)-2H-indazol-2-yl)-N-hydroxy-3-phenylpropanamide] | ≤ 50 |
| COc1ncc(-c2ccc3nn(C(Cc4ccccc4)C(=O)NO)c(C#CC4CC4)c3c2)cn1 (centres unmarked) [Compound I-0031, 2-(3-(cyclopropylethynyl)-5-(2-methoxypyrimidin-5-yl)-2H-indazol-2-yl)-N-hydroxy-3-phenylpropanamide] | ≤ 50 |
| Cc1ccc2nn(C(Cc3ccccc3)C(=O)NO)c(C#CC3CC3)c2c1 (centres unmarked) [Compound I-0032, 2-(3-(cyclopropylethynyl)-5-methyl-2H-indazol-2-yl)-N-hydroxy-3-phenylpropanamide] | ≤ 50 |
